{
  "source": "patent US10835493B2",
  "about": "“Platelet-like proteo-microparticles and method of using such in drug delivery” (Academia Sinica, priority 2015, dated 2020)",
  "key": {"HO-1 expression in SVECs": {"system": "HO-1 expression in SVECs", "assay": "CoPP-induced HO-1 expression in SVECs (western blotting)", "assay_type": "cell-based, murine", "conditions": "4 hours exposure then overnight, compared to β-actin", "method": "(§1) FIGS. 10A-10C show in vitro analysis of CoPP-induced expression of HO-1. FIG. 10A is a schematic diagram showing the relationship between CoPP, HO-1 and bilirubin. […] The cells were then placed back in a 37° C. incubator overnight before subjecting to western blotting (FIG. 10B). FIG. 10C presents the specific activity of the induced HO-1 in every treated sample, in catalyzing heme into bilirubin (n=6). NT; not treated, CoPP; free CoPP, Lipo+CoPP; liposome-encapsulated CoPP, PLP+CoPP; PLP-encapsulated CoPP. *, P<0.05, ***, P<0.001.\n(§2) Samples were separated on 4-12% SDS-polyacrylamide gels (BioRad, US). After transfer to PVDF membrane, primary and secondary antibodies were applied, and the signals were detected with ECL-plus reagent. Primary antibodies against human GPIIb (GTX113758), human CD42c (GTX113355) and β-actin (GTX109639) were purchased from GeneTex (US). The anti-human CD62P (sc-19672) were from Santa Cruz (US). The rabbit polyclonal anti-HO-1 antibodies were made in-house according to Lin et al. ((2013), Arterioscler Thromb Vase Biol 33:785-794).\n(§3) The capability of PLP−CoPP to induce HO-1 expression was first investigated in SVECs, RAW264.7 cells and MΦ (FIG. 10B). […] In addition, the enzyme activity of HO-1 in each corresponded to the expression level of enzyme in each of the CoPP-treated samples."}, "[1]": {"system": "HO-1 expression in RAW264.7 cells", "assay": "CoPP-induced HO-1 expression in RAW264.7 cells (western blotting)", "assay_type": "cell-based, murine", "conditions": "4 hours exposure then overnight", "method": "as §1, §2, §3"}, "[2]": {"system": "murine model of I/R injury", "assay": "Infarct area in murine model of myocardial I/R injury (histology)", "assay_type": "in vivo, mouse", "conditions": "5 mg/Kg i.v. at 72 hours of reperfusion then every 5 days; vs I/R+saline", "from_the_text": "(§4) FIGS. 6A-6D show therapeutic analysis of PLP−CoPP in a murine model of myocardial I/R injury. […] Subsequent injections were made every 5 days until day 28, at which point the mice were sacrificed. Subsequently, the heart tissues of the mice were sectioned and stained with Masson's trichrome (FIG. 6B). NT; not treated, CoPP; free CoPP, Lipo+CoPP; liposome-encapsulated CoPP, PLP+CoPP; PLP-encapsulated CoPP. Scale bar; 1 mm for the whole section and 100 μm for the higher magnified images.\nSurgery for myocardial ischemia-reperfusion (I/R) was performed according to the protocol published in Ojha et al. ((2008), Am J Physiol Heart Circ Physiol 294:H2435-H2443). Briefly, the mice were ventilated on room air-isoflurane at an appropriate rate and tidal volume. The heart was accessed via left thoracotomy, in which the left lung was retracted to allow entrance to the pericardium. Subsequently, the left atrium was elevated to expose the left anterior descending coronary artery (LAD), and was isolated using a 7-0 silk suture on a taper needle. The suture was tightened over a piece of polyethylene-10 tubing to provide for reversible ischemia via the occlusion of the coronary artery. Ischemia was allowed to continue for 45 minutes after occlusion. After 45 minutes, the suture was released to allow for reperfusion of the injured myocardium. […]"}, "I/R injured hearts": {"system": "I/R injured hearts", "assay": "PCR of HO-1 and pro-inflammatory genes in I/R injured hearts", "assay_type": "in vivo, mouse", "conditions": "i.v. at 72 hours of reperfusion", "from_the_text": "as §4\nTotal RNA was isolated from a whole heart using TRI Reagent (1 mL/whole heart). Subsequently, 1 μg of RNA was transcribed info cDNA using a random primer mixer (ProtoScript M-MuLV First Strand cDNA synthesis kit, New England BioLabs) and amplified during 35 cycles by PCR, utilizing specific primers (Table 1). The reactants were cycled at 95° C. for 1 min, 58° C. for 1 min, and 72° C. for 1.5 min to enable denaturation, annealing, and extension, respectively. PCR products were then separated on 1% (w/v) agarose gel at 60 V for 1 hour in TBE buffer (80 mM Tris base, 80 mM boric acid, and 2 mM EDTA, pH 8). The gels were stained with Health View Nucleic Acid Stain (Genomics, Taipei, Taiwan) for 30 minutes and then visualized under UV light."}, "[3]": {"system": "murine model of non-reperfused MI", "assay": "Echocardiographic assessment of cardiac function in murine model of MI", "assay_type": "in vivo, mouse", "conditions": "28 days post MI", "method": "FIGS. 7A-7D show echocardiographic assessments of cardiac function and blood chemistry analysis of a murine model of MI injury after PLP−CoPP treatments. […] Treatments were then given every 5 days until day 28, at which point the cardiac function of the mice was assessed by echocardiography (n=8) (FIG. 7B); LVEF, left ventricular ejection fraction; FS, fraction shortening; LVEDV, left ventricular end-diastolic volume; LVESV, left ventricular end-systolic volume; IVSd, interventricular septal thickness at diastole; IVSs, interventricular septal thickness at systole. The blood of the mice was analyzed for biomarkers to assess liver function (FIG. 7C), renal function (FIG. 7D), and cardiac function (FIG. 7E); AST, aspartate aminotransferase; ALT, alanine aminotransferase; TBIL, total bilirubin; BUN, blood urea nitrogen; CRE, creatinine; CKMB, creatine kinase MB, *, P<0.05, ***, P<0.001. […]\nThe cardiac function in murine models of both I/R and MI was assessed by using a 30-MHz probe (Vevo770; Visual Sonics, Toronto, ON, Canada), following the methods published in Chen et al. ((2015), Stem Cells Trans Med 4:269-275). […] The left ventricular end-diastolic diameter (LVEDD) and end-systolic diameter (LVESD) were measured perpendicular to the long axis of the ventricle at the location of the papillary muscle insertion site. […]"}, "murine model of MI": {"system": "murine model of MI", "assay": "Blood chemistry (serum) analysis in murine model of MI", "assay_type": "in vivo, mouse", "conditions": "end of 28-day treatment", "method": "FIGS. 7A-7D show echocardiographic assessments of cardiac function and blood chemistry analysis of a murine model of MI injury after PLP−CoPP treatments. […] Treatments were then given every 5 days until day 28, at which point the cardiac function of the mice was assessed by echocardiography (n=8) (FIG. 7B); LVEF, left ventricular ejection fraction; FS, fraction shortening; LVEDV, left ventricular end-diastolic volume; LVESV, left ventricular end-systolic volume; IVSd, interventricular septal thickness at diastole; IVSs, interventricular septal thickness at systole. The blood of the mice was analyzed for biomarkers to assess liver function (FIG. 7C), renal function (FIG. 7D), and cardiac function (FIG. 7E); AST, aspartate aminotransferase; ALT, alanine aminotransferase; TBIL, total bilirubin; BUN, blood urea nitrogen; CRE, creatinine; CKMB, creatine kinase MB, *, P<0.05, ***, P<0.001.\nAll blood tests were performed by independent staff at the Taiwan Mouse Clinic, Academia Sinica, Taiwan. Male, BALB/c mice, approximately 56 weeks old, were used for all analyses (n=5 per group).\nLevels of aspartate transaminase (AST), alanine transaminase (ALT), and total bilirubin in the serum were the biomarkers used to evaluate the hepatotoxicity of CoPP (FIG. 7C). […] Similar results were also seen in the measured serum level of blood urine nitrogen (BUN) and creatinine (CRE), which are biomarkers for renal toxicity (FIG. 7D)."}},
  "data": [
    {"smiles": "C=CC1=C(C)c2cc3[n-]c(cc4nc(cc5[n-]c(cc1n2)c(C)c5CCC(=O)[O-])C(CCC(=O)[O-])=C4C)c(C)c3C=C.[Co+2].[H+].[H+]", "note": "[CoPP, cobalt protoporphyrin]", "values": [
      {"measurement": "HO-1 expression", "setting": "HO-1 expression in SVECs", "result": "induction of some expression"},
      {"measurement": "HO-1 expression", "setting": "[1]", "result": "induced strong HO-1 expression"},
      {"measurement": "infarct area of the heart", "setting": "[2]", "result": "significant reduction"},
      {"measurement": "pro-inflammatory genes TNFα, MCP-1, IL6 and IL1β in the hearts", "setting": "I/R injured hearts", "result": "downregulated"},
      {"measurement": "expression of the HO-1 gene (HMXO1) in the hearts", "setting": "I/R injured hearts; vs saline and Lipo−CoPP", "result": "upregulated"},
      {"measurement": "left ventricular ejection fraction (LVEF, %)", "setting": "[3]; 5 mg/Kg i.v. from 3 days post-infarction every 5 days", "result": "No significant difference"},
      {"measurement": "LVEDV and LVESV", "setting": "[3]", "result": "significantly better than the other treatment groups"},
      {"measurement": "serum ALT", "setting": "murine model of MI", "result": "significantly higher level"},
      {"measurement": "serum BUN and CRE", "setting": "murine model of MI", "result": "significantly higher than the other treatment groups"},
      {"measurement": "serum CKMB", "setting": "murine model of MI", "result": "significantly lower CKMB levels"}
    ]}
  ]
}
